Data as given in publication PMC3856494, “Radiofluorination and biological evaluation of N-aryl-oxadiazolyl-propionamides as potential radioligands for PET imaging of cannabinoid CB2 receptors” (Organic and Medicinal Chemistry Letters, 2013).
Read-outs that look alike come from different tables or passages of the source.

What was measured:
[1] = HPLC-based logD determination; format: physicochemical; conditions: RP-HPLC, reference compounds
Method: The distribution coefficients of [^18F]1 and [^18F]2 were also calculated from RP-HPLC retention times in three different systems: (1) isocratic elution (60% MeCN/20 mM NH4OAc at a flow rate of 1 mL/min) and (2) gradient elution (starting from 10% MeCN/20 mM NH4OAc aq. for 10 min with a gradient to 90% MeCN/20 mM NH4OAc aq. over 30 min at a flow rate of 1 mL/min) on a Reprosil-Pur C18-AQ column (5 μm, 250 × 4.6 mm, Dr. Maisch HPLC GmbH, Ammerbruch-Entringen, Germany), and (3) isocratic elution (52.5% MeCN/20 mM NH4OAc at a flow rate of 1 mL/min) on a Prodigy 5 μm C8 (250 × 4 mm; Phenomenex Ltd, Aschaffenburg, Germany) using the reference compounds following the protocol according to the EU guideline 67/548/EWG [44].

human CB2R = human CB2R (Homo sapiens, UniProt P34972); assay: In vitro CB receptor affinity assay, displacement of [3H]CP55,940, CHO cells transfected with human CB2R; format: binding
Method: (§1) For binding experiments, Chinese hamster ovary (CHO) cell lines stably transfected with human CB1R human and CB2R were used according to the procedures previously described. […] The binding experiments were performed in triplicates, and data were given as mean values from independent experiments.

human CB1R = human CB1R (Homo sapiens, UniProt P21554); assay: In vitro CB receptor affinity assay, displacement of [3H]CP55,940, CHO cells transfected with human CB1R; format: binding
Method: as §1

human CB2R, sequence (P34972 whole entry): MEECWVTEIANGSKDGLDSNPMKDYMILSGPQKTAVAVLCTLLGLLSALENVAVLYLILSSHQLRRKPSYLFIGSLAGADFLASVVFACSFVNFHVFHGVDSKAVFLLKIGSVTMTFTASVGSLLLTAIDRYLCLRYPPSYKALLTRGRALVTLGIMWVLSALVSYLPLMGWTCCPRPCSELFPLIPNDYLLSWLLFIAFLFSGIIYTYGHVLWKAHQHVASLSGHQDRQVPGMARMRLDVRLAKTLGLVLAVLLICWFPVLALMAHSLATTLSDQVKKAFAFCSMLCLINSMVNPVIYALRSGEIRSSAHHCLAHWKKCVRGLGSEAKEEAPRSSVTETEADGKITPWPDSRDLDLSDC
human CB1R, sequence (P21554 whole entry): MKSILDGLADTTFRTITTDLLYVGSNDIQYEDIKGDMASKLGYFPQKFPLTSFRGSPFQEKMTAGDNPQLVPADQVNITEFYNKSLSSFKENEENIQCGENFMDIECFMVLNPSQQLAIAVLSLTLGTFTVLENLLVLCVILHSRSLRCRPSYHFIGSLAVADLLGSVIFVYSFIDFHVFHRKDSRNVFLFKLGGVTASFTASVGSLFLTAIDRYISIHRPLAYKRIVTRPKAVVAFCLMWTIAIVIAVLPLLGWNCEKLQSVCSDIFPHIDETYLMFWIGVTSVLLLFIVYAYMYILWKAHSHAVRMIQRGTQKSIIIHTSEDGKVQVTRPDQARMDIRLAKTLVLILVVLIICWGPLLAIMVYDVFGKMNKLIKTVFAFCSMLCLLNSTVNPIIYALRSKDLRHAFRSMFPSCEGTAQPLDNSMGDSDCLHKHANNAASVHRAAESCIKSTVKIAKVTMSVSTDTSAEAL

Compound | chromatographic logD ([1]; Prodigy 5 μm C8 column, isocratic 52.5% MeCN/20 mM NH4OAc, n = 3 to 6, read-out: logD Prodigy 5 μ C8 Isocratic) | chromatographic logD ([1]; Reprosil-Pur C18-AQ column, gradient 10% to 90% MeCN/20 mM NH4OAc, n = 3 to 6, read-out: logD Reposil-Pur C18-AQ Gradient) | chromatographic logD ([1]; Reprosil-Pur C18-AQ column, isocratic 60% MeCN/20 mM NH4OAc, n = 3 to 6, read-out: logD Reposil-Pur C18-AQ Isocratic) | Ki (human CB2R) | Ki (human CB1R) | Ki (human CB2R; [3H]CP55,940 displacement, hCB2R CHO cells, read-out: Ki CB2R) | melting point | Ki (human CB1R; [3H]CP55,940 displacement, hCB1R CHO cells, read-out: Ki CB1R)
O=C(CCc1nc(-c2ccc(F)cc2Br)no1)Nc1ccc2c(c1)c1ccccc1n2CCF [Compound 1, 3-[3-(2-Bromo-4-fluorophenyl)-1,2,4-oxadiazol-5-yl]-N-[9-(2-fluoroethyl)-9H-carbazol-3-yl]propanamide] | 3.86 ± 0.33 | 3.82 ± 0.1 | 4.21 ± 0.32 | 2.32 ± 2.12 nM | > 1000 nM |  |  | 
O=C(O)CCc1nc(-c2ccc(F)cc2Br)no1 [Compound 10, 3-(3-(2-Bromo-4-fluorophenyl)-1,2,4-oxadiazol-5-yl)propanoic acid] |  |  |  |  |  | > 1000 nM | 104 °C | > 1000 nM
